Measurements as given in PMC5224920, “Assessing the mechanism and therapeutic potential of modulators of the human Mediator complex-associated protein kinases” (eLife, 2016).

Tested on: 12 single or co-culture in vitro tissue models of primary cells
Experiment: Culture/co-culture cell model panel, extracellular biomarkers (DiscoveRx); as to CCL2/MCP-1: reference of the scale not given here; as to CD141/Thrombomodulin: reference of the scale not given here; as to CD142/Tissue Factor: reference of the scale not given here; as to CD38: reference of the scale not given here; as to CD40: reference of the scale not given here; as to CD69: reference of the scale not given here; as to CXCL8/IL-8: reference of the scale not given here; as to CXCL9/MIG: reference of the scale not given here; as to IL-1alpha: reference of the scale not given here; as to M-CSF: reference of the scale not given here; as to PBMC Cytotoxicity: reference of the scale not given here; as to Proliferation: reference of the scale not given here; as to SRB: reference of the scale not given here; as to sPGE2: reference of the scale not given here; as to sTNF-alpha: reference of the scale not given here
Format: cell-based, human

Compound: Cc1n[nH]c2ncc(C(=O)N3CCC[C@H]3c3ccc(Cl)cc3)cc12 [CMPD4]
- IL-1alpha (LPS Huvec+PBMC, 1.11E3 nM): 0.016
- M-CSF (LPS Huvec+PBMC, 1.11E3 nM): 0.016
- SRB (LPS Huvec+PBMC, 1.11E3 nM): -0.126
- sPGE2 (LPS Huvec+PBMC, 1.11E3 nM): 0.239
- sTNF-alpha (LPS Huvec+PBMC, 1.11E3 nM): 0.133
- CCL2/MCP-1 (LPS Huvec+PBMC, 1.23E2 nM): -0.026
- CD40 (LPS Huvec+PBMC, 1.23E2 nM): -0.152
- CD62E/E-Selectin (LPS Huvec+PBMC, 1.23E2 nM): 0.006
- CD69 (LPS Huvec+PBMC, 1.23E2 nM): 0.00187
- CD106/VCAM-1 (LPS Huvec+PBMC, 1.23E2 nM): 0.093
- CD141/Thrombomodulin (LPS Huvec+PBMC, 1.23E2 nM): 0.087
- CD142/Tissue Factor (LPS Huvec+PBMC, 1.23E2 nM): 0.139
- CXCL8/IL-8 (LPS Huvec+PBMC, 1.23E2 nM): -0.075
- IL-1alpha (LPS Huvec+PBMC, 1.23E2 nM): 0.044
- M-CSF (LPS Huvec+PBMC, 1.23E2 nM): -0.000401
- SRB (LPS Huvec+PBMC, 1.23E2 nM): -0.089
- sPGE2 (LPS Huvec+PBMC, 1.23E2 nM): 0.245
- sTNF-alpha (LPS Huvec+PBMC, 1.23E2 nM): 0.048
- CCL2/MCP-1 (LPS Huvec+PBMC, 1.37E1 nM): 0.005
- CD40 (LPS Huvec+PBMC, 1.37E1 nM): -0.187
- CD62E/E-Selectin (LPS Huvec+PBMC, 1.37E1 nM): -0.020
- CD69 (LPS Huvec+PBMC, 1.37E1 nM): -0.009
- CD106/VCAM-1 (LPS Huvec+PBMC, 1.37E1 nM): 0.066
- CD141/Thrombomodulin (LPS Huvec+PBMC, 1.37E1 nM): 0.056
- CD142/Tissue Factor (LPS Huvec+PBMC, 1.37E1 nM): 0.073
- CXCL8/IL-8 (LPS Huvec+PBMC, 1.37E1 nM): -0.037
- IL-1alpha (LPS Huvec+PBMC, 1.37E1 nM): -0.072
- M-CSF (LPS Huvec+PBMC, 1.37E1 nM): 0.00323
- SRB (LPS Huvec+PBMC, 1.37E1 nM): -0.040
- sPGE2 (LPS Huvec+PBMC, 1.37E1 nM): 0.171
- sTNF-alpha (LPS Huvec+PBMC, 1.37E1 nM): 0.038
- CCL2/MCP-1 (LPS Huvec+PBMC, 3.33E3 nM): -0.067
- CD40 (LPS Huvec+PBMC, 3.33E3 nM): -0.112
- CD62E/E-Selectin (LPS Huvec+PBMC, 3.33E3 nM): 0.00461
- CD69 (LPS Huvec+PBMC, 3.33E3 nM): 0.059
- CD106/VCAM-1 (LPS Huvec+PBMC, 3.33E3 nM): 0.096
- CD141/Thrombomodulin (LPS Huvec+PBMC, 3.33E3 nM): 0.075
- CD142/Tissue Factor (LPS Huvec+PBMC, 3.33E3 nM): 0.108
- CXCL8/IL-8 (LPS Huvec+PBMC, 3.33E3 nM): -0.193
- IL-1alpha (LPS Huvec+PBMC, 3.33E3 nM): 0.066
- M-CSF (LPS Huvec+PBMC, 3.33E3 nM): 0.023
- SRB (LPS Huvec+PBMC, 3.33E3 nM): -0.130
- sPGE2 (LPS Huvec+PBMC, 3.33E3 nM): 0.179
- sTNF-alpha (LPS Huvec+PBMC, 3.33E3 nM): 0.057
- CCL2/MCP-1 (LPS Huvec+PBMC, 3.70E2 nM): -0.029
- CD40 (LPS Huvec+PBMC, 3.70E2 nM): -0.162
- CD62E/E-Selectin (LPS Huvec+PBMC, 3.70E2 nM): -0.010
- CD69 (LPS Huvec+PBMC, 3.70E2 nM): 0.00559
- CD106/VCAM-1 (LPS Huvec+PBMC, 3.70E2 nM): 0.093
- CD141/Thrombomodulin (LPS Huvec+PBMC, 3.70E2 nM): 0.092
- CD142/Tissue Factor (LPS Huvec+PBMC, 3.70E2 nM): 0.144
- CXCL8/IL-8 (LPS Huvec+PBMC, 3.70E2 nM): -0.137
- IL-1alpha (LPS Huvec+PBMC, 3.70E2 nM): 0.044
- M-CSF (LPS Huvec+PBMC, 3.70E2 nM): -0.012
- SRB (LPS Huvec+PBMC, 3.70E2 nM): -0.096
- sPGE2 (LPS Huvec+PBMC, 3.70E2 nM): 0.189
- sTNF-alpha (LPS Huvec+PBMC, 3.70E2 nM): 0.099
- CCL2/MCP-1 (LPS Huvec+PBMC, 4.12E1 nM): -0.00282
- CD40 (LPS Huvec+PBMC, 4.12E1 nM): -0.180
- CD62E/E-Selectin (LPS Huvec+PBMC, 4.12E1 nM): -0.032
- CD69 (LPS Huvec+PBMC, 4.12E1 nM): 0.017
- CD106/VCAM-1 (LPS Huvec+PBMC, 4.12E1 nM): 0.090
- CD141/Thrombomodulin (LPS Huvec+PBMC, 4.12E1 nM): 0.090
- CD142/Tissue Factor (LPS Huvec+PBMC, 4.12E1 nM): 0.115
- CXCL8/IL-8 (LPS Huvec+PBMC, 4.12E1 nM): -0.044
- IL-1alpha (LPS Huvec+PBMC, 4.12E1 nM): 0.017
- M-CSF (LPS Huvec+PBMC, 4.12E1 nM): -0.0023
- SRB (LPS Huvec+PBMC, 4.12E1 nM): -0.053
- sPGE2 (LPS Huvec+PBMC, 4.12E1 nM): 0.230
- sTNF-alpha (LPS Huvec+PBMC, 4.12E1 nM): 0.081
- CCL2/MCP-1 (LPS Huvec+PBMC, 4.57E0 nM): -0.00276
- CD40 (LPS Huvec+PBMC, 4.57E0 nM): -0.174
- CD62E/E-Selectin (LPS Huvec+PBMC, 4.57E0 nM): -0.017
- CD69 (LPS Huvec+PBMC, 4.57E0 nM): 0.019
- CD106/VCAM-1 (LPS Huvec+PBMC, 4.57E0 nM): 0.051
- CD141/Thrombomodulin (LPS Huvec+PBMC, 4.57E0 nM): 0.058
- CD142/Tissue Factor (LPS Huvec+PBMC, 4.57E0 nM): 0.062
- CXCL8/IL-8 (LPS Huvec+PBMC, 4.57E0 nM): -0.024
- IL-1alpha (LPS Huvec+PBMC, 4.57E0 nM): -0.00758
- M-CSF (LPS Huvec+PBMC, 4.57E0 nM): -0.005
- SRB (LPS Huvec+PBMC, 4.57E0 nM): -0.016
- sPGE2 (LPS Huvec+PBMC, 4.57E0 nM): 0.124
- sTNF-alpha (LPS Huvec+PBMC, 4.57E0 nM): -0.057
- CCL2/MCP-1 (SAg, 1.00E4 nM): -0.077
- CD38 (SAg, 1.00E4 nM): -0.031
- CD40 (SAg, 1.00E4 nM): -0.104
- CD62E/E-Selectin (SAg, 1.00E4 nM): 0.099
- CD69 (SAg, 1.00E4 nM): 0.140
- CXCL8/IL-8 (SAg, 1.00E4 nM): -0.277
- CXCL9/MIG (SAg, 1.00E4 nM): -0.047
- PBMC Cytotoxicity (SAg, 1.00E4 nM): 0.013
- Proliferation (SAg, 1.00E4 nM): -0.003
- SRB (SAg, 1.00E4 nM): -0.133
- CCL2/MCP-1 (SAg, 1.11E3 nM): -0.125
- CD38 (SAg, 1.11E3 nM): -0.063
- CD40 (SAg, 1.11E3 nM): -0.103
- CD62E/E-Selectin (SAg, 1.11E3 nM): 0.135
- CD69 (SAg, 1.11E3 nM): 0.166
- CXCL8/IL-8 (SAg, 1.11E3 nM): -0.272
- CXCL9/MIG (SAg, 1.11E3 nM): -0.097
- PBMC Cytotoxicity (SAg, 1.11E3 nM): 0.007
- Proliferation (SAg, 1.11E3 nM): -0.000932
- SRB (SAg, 1.11E3 nM): -0.168
- CCL2/MCP-1 (SAg, 1.23E2 nM): -0.092
- CD38 (SAg, 1.23E2 nM): -0.087
- CD40 (SAg, 1.23E2 nM): -0.136
- CD62E/E-Selectin (SAg, 1.23E2 nM): 0.130
- CD69 (SAg, 1.23E2 nM): 0.140
- CXCL8/IL-8 (SAg, 1.23E2 nM): -0.108
- CXCL9/MIG (SAg, 1.23E2 nM): -0.076
- PBMC Cytotoxicity (SAg, 1.23E2 nM): -0.032
- Proliferation (SAg, 1.23E2 nM): 0.030
- SRB (SAg, 1.23E2 nM): -0.149
- CCL2/MCP-1 (SAg, 1.37E1 nM): -0.019
- CD38 (SAg, 1.37E1 nM): -0.064
- CD40 (SAg, 1.37E1 nM): -0.117
- CD62E/E-Selectin (SAg, 1.37E1 nM): 0.101
- CD69 (SAg, 1.37E1 nM): 0.100
- CXCL8/IL-8 (SAg, 1.37E1 nM): -0.060
- CXCL9/MIG (SAg, 1.37E1 nM): -0.029
- PBMC Cytotoxicity (SAg, 1.37E1 nM): 0.005
- Proliferation (SAg, 1.37E1 nM): -0.021
- SRB (SAg, 1.37E1 nM): -0.058
- CCL2/MCP-1 (SAg, 3.33E3 nM): -0.104
- CD38 (SAg, 3.33E3 nM): -0.056
- CD40 (SAg, 3.33E3 nM): -0.138
- CD62E/E-Selectin (SAg, 3.33E3 nM): 0.125
- CD69 (SAg, 3.33E3 nM): 0.148
- CXCL8/IL-8 (SAg, 3.33E3 nM): -0.259
- CXCL9/MIG (SAg, 3.33E3 nM): -0.085
- PBMC Cytotoxicity (SAg, 3.33E3 nM): -0.00278
- Proliferation (SAg, 3.33E3 nM): -0.016
- SRB (SAg, 3.33E3 nM): -0.179
- CCL2/MCP-1 (SAg, 3.70E2 nM): -0.123
- CD38 (SAg, 3.70E2 nM): -0.080
- CD40 (SAg, 3.70E2 nM): -0.137
- CD62E/E-Selectin (SAg, 3.70E2 nM): 0.119
- CD69 (SAg, 3.70E2 nM): 0.128
- CXCL8/IL-8 (SAg, 3.70E2 nM): -0.284
- CXCL9/MIG (SAg, 3.70E2 nM): -0.085
- PBMC Cytotoxicity (SAg, 3.70E2 nM): -0.040
- Proliferation (SAg, 3.70E2 nM): -0.011
- SRB (SAg, 3.70E2 nM): -0.146
- CCL2/MCP-1 (SAg, 4.12E1 nM): -0.056
- CD38 (SAg, 4.12E1 nM): -0.062
- CD40 (SAg, 4.12E1 nM): -0.124
- CD62E/E-Selectin (SAg, 4.12E1 nM): 0.124
- CD69 (SAg, 4.12E1 nM): 0.126
- CXCL8/IL-8 (SAg, 4.12E1 nM): -0.119
- CXCL9/MIG (SAg, 4.12E1 nM): -0.046
- PBMC Cytotoxicity (SAg, 4.12E1 nM): -0.001
- Proliferation (SAg, 4.12E1 nM): 0.000938
- SRB (SAg, 4.12E1 nM): -0.102
- CCL2/MCP-1 (SAg, 4.57E0 nM): 0.040
- CD38 (SAg, 4.57E0 nM): -0.052
- CD40 (SAg, 4.57E0 nM): -0.084
- CD62E/E-Selectin (SAg, 4.57E0 nM): 0.070
- CD69 (SAg, 4.57E0 nM): 0.062
- CXCL8/IL-8 (SAg, 4.57E0 nM): 0.007
- CXCL9/MIG (SAg, 4.57E0 nM): -0.031
- PBMC Cytotoxicity (SAg, 4.57E0 nM): 0.015
- Proliferation (SAg, 4.57E0 nM): 0.009
- SRB (SAg, 4.57E0 nM): 0.029
